Experiments:
[1] = test system: TRAMP mouse model of NEPC; assay: Efficacy study (tumor volume) in transgenic mouse model of NEPC (TRAMP mouse); assay type: in vivo; conditions: TRAMP mice; talabostat mesylate 20 μg qd p.o.; PD-1 antagonist 10 mg/kg i.p. twice weekly
Source text: Efficacy Study of Talabostat Mesylate and PD-1 Antagonist in Transgenic Mouse Model of NEPC (TRAMP Mouse)
Reagents and Antibodies: RPMI-1640 medium (Catalog No.: A1049101), Glutamax (Catalog No.: 35050061), Trypsin-EDTA (0.25%) (Catalog No.: 25200-056), Penicillin-Streptomycin (Catalog No.: 15070-063), HBSS (Catalog No.: 14175-095) are procured form Gibco, while Fetal bovine serum (FBS) (Catalog No.: 004-001-1A) is purchased from Biological Industries. The anti-PD-1 antibody (PD-1 antagonist (clone: RMPI-14, Catalog no: BE0146)) is supplied by Bioxcell at 6.61 mg/ml. Stock solutions of PD-1 antagonist, at 1 mg/ml concentrations are prepared and kept at 4° C. prior to use. Dosing solutions of PD-1 antagonist are prepared freshly at a concentration of 1 mg/ml, before every administration in sterile phosphate buffered saline (PBS), pH 7.0 and administered a dose of 10 mg/kg, intraperitoneally (i.p) into, 20 g mouse. […]
Tumor size and body weights are measured twice weekly. Tumor volumes are measured twice per week in two dimensions using a caliper, and the volume are expressed in mm^3 using the formula: V=0.5 a×b^2 where a and b are the length and width of the tumor, respectively. […] Tumor volume is expressed in mm^3, is measured with caliper on day 5, 8, 12, 15, 19, 22, 26 and day 29.

[2] = test system: NK cells, macrophages, FoxP3+ Tregs in tumor; assay: Immunophenotyping of tumor samples by RT-PCR; assay type: in vivo; conditions: TRAMP mouse tumor samples
Procedure: Immunophenotyping of tumor samples by RT-PCR: Tumor RNA samples are extracted from the frozen tumor tissues using the Trizol reagent. Reverse transcription is carried out using a kit from Takara (Catalog No. #RR047A). Quantitative PCR are conducted using a master mix from Invitrogen (Catalog No. #4309155) on an ABI 7900HT Fast Real-Time PCR System. The results are analyzed using a Delta Ct Method. The marker gene and respective oligo sequence used in this study are from the NIH q-RT-PCR primer database (mouseqprimerdepot.nih.gov) these are associated with the Ncrl and Pfrl (NK cell receptor) a marker characteristic to the NK cell and their activation respectively, while the Gmbz is meant for quantifying the release of granzyme B and the FoxP3 associated with CD25+CD4+ Tregs. Statistical Analysis: A one-way ANOVA is also used to assess the statistical difference between the vehicle group and all other groups in the blood sample immune-phenotyping and q-RT-PCR assay as well as on the microarray samples on the indicated day. All the data is analyzed using GraphPad Prism 5. p<0.05 is statistically significant (*, p<0.05; **, p<0.01; ***, p<0.001).

talabostat mesylate
tumor reduction (tumor volume) [1]: significant effect
FoxP3+ Treg population (relative mRNA expression of FoxP3) in tumor samples [2]: reduction in the FoxP3 population

— patent US11613785B2, “Predictive and diagnostic methods for prostate cancer” (OnkosXcel Therapeutics, LLC, priority 2017, dated 2023)
